Data: the supplement of paper PMC10307832

Legend:
Experiment in all cases: relative viability (nuclei count vs DMSO), 5 days (fraction); higher = more cells survive
[1] = compound: Nc1ccn([C@@H]2O[C@H](CO)[C@@H](O)C2(F)F)c(=O)n1 [Gemcitabine] + O=C(CCCCCCC(=O)Nc1ccccc1)NO [Vorinostat] (partner 1 µM)
Summary of the method: (§1)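 Relative viability was taken as the ratio of nuclei in treated wells to nuclei in vehicle wells. Lung cancer cell lines in 1536-well plates received compounds by pin tool one day after seeding, either one drug alone or a fixed anchor-drug dose plus five library-drug doses (not always all listed) in √10 steps. Nuclei were counted on 4× images after 5 days of treatment, and values are medians of duplicate plates.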

[2] = compound: Nc1ccn([C@@H]2O[C@H](CO)[C@@H](O)C2(F)F)c(=O)n1 [Gemcitabine] + NC(=O)Nc1cc(-c2cccc(F)c2)sc1C(=O)N[C@H]1CCCNC1 [AZD7762] (partner 0.2 µM)
Summary of the method: as §1

[3] = compound: Nc1ccn([C@@H]2O[C@H](CO)[C@@H](O)C2(F)F)c(=O)n1 [Gemcitabine] + CC(=O)c1c(C)c2cnc(Nc3ccc(N4CCNCC4)cn3)nc2n(C2CCCC2)c1=O [Palbociclib] (partner 0.5 µM)
Summary of the method: as §1

[4] = compound: Nc1ccn([C@@H]2O[C@H](CO)[C@@H](O)C2(F)F)c(=O)n1 [Gemcitabine] + C[C@@H](Oc1cc(-c2cnn(C3CCNCC3)c2)cnc1N)c1c(Cl)ccc(F)c1Cl [Crizotinib] (partner 1 µM)
Summary of the method: as §1

Row | Cell Line | relative viability ([1]; first compound 0.001 µM) | relative viability ([1]; first compound 0.003162 µM) | relative viability ([1]; first compound 0.01 µM) | relative viability ([1]; first compound 0.03162 µM) | relative viability ([1]; first compound 0.1 µM) | relative viability ([2]; first compound 0.001 µM) | relative viability ([2]; first compound 0.003162 µM) | relative viability ([2]; first compound 0.01 µM) | relative viability ([2]; first compound 0.03162 µM) | relative viability ([2]; first compound 0.1 µM) | relative viability ([3]; first compound 0.001 µM) | relative viability ([3]; first compound 0.003162 µM) | relative viability ([3]; first compound 0.01 µM) | relative viability ([3]; first compound 0.03162 µM) | relative viability ([3]; first compound 0.1 µM) | relative viability ([4]; first compound 0.001 µM) | relative viability ([4]; first compound 0.003162 µM) | relative viability ([4]; first compound 0.01 µM) | relative viability ([4]; first compound 0.03162 µM) | relative viability ([4]; first compound 0.1 µM)
1 | 201T | 0.999 | 1.04 | 0.93 | 0.43 | 0.253 | 0.59 | 0.584 | 0.237 | 0.225 | 0.233 | 0.341 | 0.363 | 0.317 | 0.359 | 0.323 | 1.04 | 1.01 | 0.975 | 0.464 | 0.329
2 | A549 |  |  |  |  |  |  |  |  |  |  |  |  |  |  |  | 0.858 | 0.377 | 0.229 | 0.0341 | 0.0206
3 | A-427 | 0.826 | 0.857 | 0.671 | 0.321 | 0.284 | 0.472 | 0.302 | 0.174 | 0.188 | 0.146 | 0.552 | 0.492 | 0.421 | 0.326 | 0.235 | 0.984 | 0.764 | 0.503 | 0.124 | 0.106
4 | ABC-1 |  | 1.26 | 1.06 | 0.303 | 0.256 | 0.748 | 0.757 | 0.964 | 0.295 | 0.304 |  | 0.547 | 0.626 | 0.353 | 0.347 | 1.2 | 1.4 | 0.829 | 0.342 | 0.114
5 | BEN | 0.653 | 0.55 | 0.309 | 0.253 | 0.331 | 0.441 | 0.252 | 0.184 | 0.184 | 0.253 | 0.448 | 0.38 | 0.364 | 0.291 | 0.273 | 0.874 | 0.563 | 0.139 | 0.113 | 0.09
6 | CAL-12T | 0.864 | 0.744 | 0.715 | 0.272 | 0.178 | 0.624 | 0.548 | 0.227 | 0.206 | 0.23 | 0.628 | 0.48 | 0.292 | 0.161 | 0.16 | 0.684 | 0.745 | 0.662 | 0.227 | 0.104
7 | COR-L23 | 0.486 | 0.347 | 0.092 | 0.0851 | 0.1 |  |  |  |  |  | 0.277 | 0.214 | 0.119 | 0.112 | 0.0964 | 0.72 | 0.565 | 0.211 | 0.0732 | 0.0754
8 | COR-L 105 | 0.82 | 0.726 | 0.56 | 0.336 | 0.27 |  |  |  |  |  | 0.398 | 0.4 | 0.366 | 0.347 | 0.326 | 1.09 | 0.825 | 0.577 | 0.286 | 0.197
9 | Calu-6 |  |  |  |  |  |  |  |  |  |  |  |  |  |  |  | 0.784 | 0.585 | 0.279 | 0.145 | 0.123
10 | ChaGo-K-1 | 0.772 | 0.68 | 0.301 | 0.201 | 0.177 | 0.819 | 0.47 | 0.186 | 0.141 | 0.153 | 0.99 | 0.803 | 0.31 | 0.186 | 0.167 | 1.12 | 0.961 | 0.578 | 0.36 | 0.314
11 | EBC-1 |  |  |  |  |  |  |  |  |  |  |  |  |  |  |  | 0.192 | 0.166 | 0.161 | 0.134 | 0.159
12 | EKVX | 0.747 | 0.686 | 0.618 | 0.27 | 0.217 | 0.49 | 0.466 | 0.142 | 0.147 | 0.139 | 0.412 | 0.284 | 0.237 | 0.168 | 0.154 | 1 | 0.872 | 0.387 | 0.169 | 0.159
13 | EMC-BAC-2 | 0.343 | 0.402 | 0.234 | 0.148 | 0.198 | 1.18 | 0.723 | 0.224 | 0.301 | 0.232 | 0.529 | 0.515 | 0.46 | 0.256 | 0.25 | 0.778 | 0.768 | 0.594 | 0.14 | 0.149
14 | EPLC-272H | 0.25 | 0.29 | 0.254 | 0.112 | 0.056 | 0.19 | 0.141 | 0.0918 | 0.101 | 0.0686 | 0.384 | 0.323 | 0.275 | 0.244 | 0.21 | 0.766 | 0.847 | 0.196 | 0.175 | 0.0681
15 | H3255 | 0.834 | 0.848 | 0.289 | 0.296 | 0.251 | 1 | 0.604 | 0.37 | 0.203 | 0.248 | 0.348 | 0.347 | 0.286 | 0.285 | 0.264 | 0.97 | 0.439 | 0.63 | 0.167 | 0.176
16 | HARA | 0.497 | 0.538 | 0.444 | 0.0835 | 0.0515 | 0.328 | 0.241 | 0.131 | 0.132 | 0.117 | 0.234 | 0.283 | 0.219 | 0.179 | 0.139 | 0.975 | 1.02 | 1.02 | 0.3 | 0.124
17 | HCC-15 | 0.908 | 0.815 | 0.739 | 0.247 | 0.109 | 1.03 | 1.21 | 1.18 | 0.129 | 0.113 | 0.811 | 0.722 | 0.634 | 0.327 | 0.0961 | 0.929 | 0.819 | 0.79 | 0.192 | 0.0758
18 | HCC-44 | 1.1 | 1.13 | 1.04 | 0.651 | 0.418 | 0.971 | 1.03 | 0.942 | 0.226 | 0.271 | 0.934 | 0.908 | 0.938 | 0.717 | 0.447 | 0.825 | 0.756 | 0.614 | 0.201 | 0.154
19 | HCC-78 | 0.405 | 0.276 | 0.215 | 0.225 | 0.23 | 0.477 | 0.303 | 0.186 | 0.214 | 0.277 | 0.495 | 0.446 | 0.388 | 0.302 | 0.294 | 0.271 | 0.26 | 0.167 | 0.146 | 0.15
